Assay results reported in PubChem BioAssay AID330 (DTP/NCI, 2004).
Several values for one entry are separate records, joined by “and”; a condition that tells them apart may be missing. Equal entries are not always repeated. Inconclusive results and toxic doses are left out. Rule for the calls: active = survival T/C of 150% or more; inactive = T/C below 125% in these data.

Tested on: P388 leukemia ip, CD2F1 mice, survival T/C
Assay: NCI In Vivo Anticancer Drug Screen. Data for tumor model P388 Leukemia (intraperitoneal) in CD2F1 (CDF1) mice
Details: endpoint: median survival time, higher = longer survival
Summary of the method: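 Mice carrying the transplanted tumor received test compound or vehicle. Survival was recorded in each group, and the value is the treated-group measurement divided by that of the vehicle-treated control group.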

[1] = dose: 12.5 mg/kg/injection, schedule: Q01DX009 (ip), vehicle: saline with Tween-80
[2] = dose: 25.0 mg/kg/injection, schedule: Q01DX009 (ip), vehicle: saline with Tween-80
[3] = dose: 50.0 mg/kg/injection, schedule: Q01DX009 (ip), vehicle: saline with Tween-80
[4] = dose: 100.0 mg/kg/injection, schedule: Q01DX001 (ip), vehicle: saline with Tween-80
[5] = dose: 200.0 mg/kg/injection, schedule: Q01DX001 (ip), vehicle: saline with Tween-80
[6] = dose: 400.0 mg/kg/injection, schedule: Q01DX001 (ip), vehicle: saline with Tween-80
[7] = dose: 100.0 mg/kg/injection, schedule: Q01DX009 (ip), vehicle: saline with Tween-80
[8] = dose: 50.0 mg/kg/injection, schedule: Q01DX005 (ip), vehicle: saline with Tween-80
[9] = dose: 100.0 mg/kg/injection, schedule: Q01DX005 (ip), vehicle: saline with Tween-80
[10] = dose: 200.0 mg/kg/injection, schedule: Q01DX005 (ip), vehicle: saline with Tween-80
[11] = dose: 60.0 mg/kg/injection, schedule: Q01DX005 (ip), vehicle: saline with Tween-80
[12] = dose: 100.0 mg/kg/injection, schedule: Q04DX003 (ip), vehicle: Klucel (hydroxypropylcellulose) (HPC)
[13] = dose: 200.0 mg/kg/injection, schedule: Q04DX003 (ip), vehicle: Klucel (hydroxypropylcellulose) (HPC)
[14] = dose: 400.0 mg/kg/injection, schedule: Q04DX003 (ip), vehicle: Klucel (hydroxypropylcellulose) (HPC)

Measured: T/C

COc1cc2c(cc1OC)C1C(CO)c3ccc(OC)c(OC)c3CN1CC2 (stereo unspecified)
inactive: dose: 50.0 mg/kg/injection, schedule: Q04DX003 (ip), vehicle: distilled water + Tween-80 96 % of control | dose: 100.0 mg/kg/injection, schedule: Q04DX003 (ip), vehicle: distilled water + Tween-80 93 % of control | dose: 200.0 mg/kg/injection, schedule: Q04DX003 (ip), vehicle: distilled water + Tween-80 87 % of control | dose: 400.0 mg/kg/injection, schedule: Q04DX003 (ip), vehicle: distilled water + Tween-80 91 % of control

CCOC(=O)C1Cc2nc(-c3ccccc3)ncc2C1=O (stereo unspecified)
inactive: [1] 107 % of control | [2] 107 % of control | [3] 101 % of control

Cc1cc2nc(C(C)(C)F)c(=O)[nH]c2cc1C
inactive: [4] 102 % of control | [5] 94 % of control | [6] 96 % of control

CC1(C)N=C(N)N=C(N)N1c1ccc(CCCCc2ccc(Cl)cc2Cl)cc1
inactive: dose: 3.13 mg/kg/injection, schedule: Q01DX009 (ip), vehicle: saline with Tween-80 118 % of control | [1] 122 % of control

CC1CCP(c2ccccc2)C1 (stereo unspecified)
inactive: [4] 105 % of control | [5] 116 % of control

CS/C(=N\N=C(/C)c1ccccn1)SS/C(=N/N=C(\C)c1ccccn1)SC
inactive: dose: 12.5 mg/kg/injection, schedule: Q01DX005 (ip), vehicle: saline + Tween-80 + alcohol 98 % of control | dose: 25.0 mg/kg/injection, schedule: Q01DX005 (ip), vehicle: saline + Tween-80 + alcohol 97 % of control | dose: 50.0 mg/kg/injection, schedule: Q01DX005 (ip), vehicle: saline + Tween-80 + alcohol 101 % of control and 103 % of control | dose: 100.0 mg/kg/injection, schedule: Q01DX005 (ip), vehicle: saline + Tween-80 + alcohol 111 % of control

Nc1ccc(CCCCc2ccc(Cl)c(S(=O)(=O)F)c2)c(Cl)c1
inactive: [7] 91 % of control | dose: 200.0 mg/kg/injection, schedule: Q01DX009 (ip), vehicle: saline with Tween-80 91 % of control

CCN1C(=O)C(=O)c2ccccc21
inactive: dose: 18.75 mg/kg/injection, schedule: Q01DX009 (ip), vehicle: saline with Tween-80 96 % of control | dose: 18.75 mg/kg/injection, schedule: Q01DX009 (ip), vehicle: saline 107 % of control | dose: 37.5 mg/kg/injection, schedule: Q01DX009 (ip), vehicle: saline with Tween-80 96 % of control | dose: 37.5 mg/kg/injection, schedule: Q01DX009 (ip), vehicle: saline 102 % of control and 110 % of control | dose: 75.0 mg/kg/injection, schedule: Q01DX009 (ip), vehicle: saline with Tween-80 100 % of control | dose: 75.0 mg/kg/injection, schedule: Q01DX009 (ip), vehicle: saline 104 % of control and 105 % of control

O=c1c2ccccc2ncn1Cc1ccco1
inactive: [8] 98 % of control | [9] 98 % of control | [10] 99 % of control

CCS(=O)(=O)CCN1C(=O)CN=C(c2ccccc2F)c2cc(Cl)ccc21
inactive: [1] 102 % of control | [2] 104 % of control | [3] 103 % of control | [7] 110 % of control

CCCCCCC(=O)Nc1ncc([N+](=O)[O-])s1
inactive: dose: 50.0 mg/kg/injection, schedule: Q01DX009 (ip), vehicle: Klucel (hydroxypropylcellulose) (HPC) 106 % of control | dose: 100.0 mg/kg/injection, schedule: Q01DX009 (ip), vehicle: Klucel (hydroxypropylcellulose) (HPC) 106 % of control | dose: 200.0 mg/kg/injection, schedule: Q01DX009 (ip), vehicle: Klucel (hydroxypropylcellulose) (HPC) 100 % of control

CSC(=S)n1nc(C)c(N=Nc2cccc(Cl)c2Cl)c1C
inactive: [8] 88 % of control | [9] 88 % of control | [10] 89 % of control

Nc1ccc(/C=C/c2ccnc3ccccc23)c(N)c1
inactive: dose: 1.25 mg/kg/injection, schedule: Q01DX001 (ip), vehicle: Klucel (hydroxypropylcellulose) (HPC) 107 % of control | dose: 2.5 mg/kg/injection, schedule: Q01DX001 (ip), vehicle: Klucel (hydroxypropylcellulose) (HPC) 108 % of control | dose: 5.0 mg/kg/injection, schedule: Q01DX001 (ip), vehicle: Klucel (hydroxypropylcellulose) (HPC) 114 % of control | dose: 10.0 mg/kg/injection, schedule: Q01DX001 (ip), vehicle: Klucel (hydroxypropylcellulose) (HPC) 107 % of control

CC1=C(I)C2(CCCCC2)OC1=O
inactive: [4] 101 % of control | [5] 94 % of control | [6] 93 % of control

C=C(C(N)=O)C(N)C(=O)O (stereo unspecified)
inactive: [11] 120 % of control

O=C1C=C(c2ccccc2)CS1
inactive: [12] 101 % of control | [13] 101 % of control | [14] 101 % of control

CCCCCC(C)(O)C1=NCCN1 (stereo unspecified)
inactive: dose: 12.5 mg/kg/injection, schedule: Q01DX005 (ip), vehicle: Klucel (hydroxypropylcellulose) (HPC) 97 % of control | dose: 25.0 mg/kg/injection, schedule: Q01DX005 (ip), vehicle: Klucel (hydroxypropylcellulose) (HPC) 95 % of control | dose: 50.0 mg/kg/injection, schedule: Q01DX005 (ip), vehicle: Klucel (hydroxypropylcellulose) (HPC) 100 % of control and 93 % of control

Cc1nc(C(=O)N=C(N)N)c(N)nc1-c1ccccc1
inactive: dose: 15.0 mg/kg/injection, schedule: Q01DX005 (ip), vehicle: saline with Tween-80 106 % of control | dose: 30.0 mg/kg/injection, schedule: Q01DX005 (ip), vehicle: saline with Tween-80 104 % of control | [11] 100 % of control

CN1CCCC(OC(=O)Oc2ccccc2)C1 (stereo unspecified)
inactive: dose: 50.0 mg/kg/injection, schedule: Q01DX001 (ip), vehicle: other 101 % of control | dose: 100.0 mg/kg/injection, schedule: Q01DX001 (ip), vehicle: other 100 % of control | dose: 200.0 mg/kg/injection, schedule: Q01DX001 (ip), vehicle: other 102 % of control | dose: 400.0 mg/kg/injection, schedule: Q01DX001 (ip), vehicle: other 99 % of control

NC(=O)N/N=C(/Cc1nc2ccccc2nc1C/C(=N/NC(N)=O)c1cccc2ccccc12)c1cccc2ccccc12
inactive: [11] 99 % of control and 95 % of control | dose: 120.0 mg/kg/injection, schedule: Q01DX005 (ip), vehicle: saline with Tween-80 100 % of control | dose: 240.0 mg/kg/injection, schedule: Q01DX005 (ip), vehicle: saline with Tween-80 100 % of control and 91 % of control

CC(=O)OCC1C(OC(C)=O)C(OC(C)=O)C(COC(C)=O)N1C(C)=O (stereo unspecified)
inactive: [12] 90 % of control | [13] 90 % of control | [14] 87 % of control
